Measurements published in patent US20060182685A1, “Hollow fiber technique for in vivo study of cell populations” (priority 2004, published 2006).
Where two headings read alike, the source gives them in different places. Marks after values point to notes of the source that are not given here.

Key:
[1] = Serum antibiotic concentrations in mice on medicated diet; conditions: for Cmean: serum; for AUC: SKH1, mouse, in vivo
[2] = cited from earlier work
[3] = test system: hollow fiber-encapsulated M. tuberculosis H37Rv-lux

SMILES | Cmean ([1]; Isoniazid, SKH1 mice (0.02% diet)) [mg/L] | AUC ([1]; 0.02 % of diet) [ng·h/mL] | AUC ([2]; Isoniazid, Humans (5 mg/kg), rapid acetylators) | AUC ([2]; human, in vivo, 5 mg/kg) | activity against bacilli in the hollow fiber model in vivo [3] | Cmean ([1]; Rifampin, SKH1 mice (0.05% diet)) [mg/L] | AUC ([1]; 0.05 % of diet) [ng·h/mL] | AUC ([2]; human, in vivo, 10 mg/kg) [mg·h/L] | Cmax ([2]; human, in vivo, 10 mg/kg) [ng/mL] | kill of hollow fiber-encapsulated bacilli ([3]; in vivo) [log]
NNC(=O)c1ccncc1 [Isoniazid, isoniazid] | 0.77 ± 0.21 | 18500 ± 5000 | 19.9 ± 6.1^a mg h/L | 48.2 ± 1.5^b mg h/L | somewhat effective | – | – | – | – | –
CO[C@H]1/C=C/O[C@@]2(C)Oc3c(C)c(O)c4c(O)c(c(/C=N/N5CCN(C)CC5)c(O)c4c3C2=O)NC(=O)/C(C)=C\C=C\[C@H](C)[C@H](O)[C@@H](C)[C@@H](O)[C@@H](C)[C@H](OC(C)=O)[C@@H]1C [Rifampin, rifampin] | – | – | – | – | magnitude of its effect greater than that of isoniazid | 3.09 ± 0.41 | 74200 ± 9800 | 117.93 | 14910 | 3
